Data taken from patent publication US20040072738A1, “Analogues of thiocoraline and be-22179” (priority 2000, published 2004).
Bridge positions count the residues as written; N and C are the ends. Square brackets hold non-standard residues; d marks the D form. Peptide text beside a SMILES is read from it. I, II: the chains in the order shown. * marks the point of attachment. Quinaldoyl(3-OH) = O=C(c1nc2ccccc2cc1O)*; NMeC = CN[C@@H](CS)C(=O)O

How the values were obtained:
DNA topoisomerase II = settings: cited from earlier work
DNA topoisomerase I = biological target: T1, DNA topoisomerase I (Homo sapiens, UniProt P11387); settings: cited from earlier work
T1 sequence (P11387 1-765): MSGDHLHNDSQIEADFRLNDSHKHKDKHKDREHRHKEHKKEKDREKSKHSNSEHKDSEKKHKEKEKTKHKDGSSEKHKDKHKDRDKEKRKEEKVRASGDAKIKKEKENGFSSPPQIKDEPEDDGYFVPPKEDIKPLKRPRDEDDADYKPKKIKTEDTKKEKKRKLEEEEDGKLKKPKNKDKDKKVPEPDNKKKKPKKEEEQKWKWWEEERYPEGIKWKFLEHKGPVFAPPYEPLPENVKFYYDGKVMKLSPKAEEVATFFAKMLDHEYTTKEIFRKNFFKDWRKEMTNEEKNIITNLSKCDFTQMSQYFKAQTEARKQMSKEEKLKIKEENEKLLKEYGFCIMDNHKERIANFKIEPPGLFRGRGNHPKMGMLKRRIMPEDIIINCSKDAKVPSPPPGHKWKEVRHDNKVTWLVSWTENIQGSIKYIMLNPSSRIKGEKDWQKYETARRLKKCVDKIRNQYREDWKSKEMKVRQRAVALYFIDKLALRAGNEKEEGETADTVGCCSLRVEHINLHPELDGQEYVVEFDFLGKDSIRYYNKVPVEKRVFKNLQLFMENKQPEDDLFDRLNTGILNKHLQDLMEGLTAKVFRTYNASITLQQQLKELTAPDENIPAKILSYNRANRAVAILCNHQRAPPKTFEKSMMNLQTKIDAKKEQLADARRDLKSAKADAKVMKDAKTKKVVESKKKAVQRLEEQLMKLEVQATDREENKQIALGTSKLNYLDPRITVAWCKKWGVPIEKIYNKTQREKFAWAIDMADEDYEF

supercoiled ΦX174 DNA [1] = assay: DNA cleavage assay, conversion of Form I to Form II or Form III; type: biochemical
Source text: Also examined was the ability of 1 or 2 to cleave, alkylate, or cross-link DNA. In particular, the electrophilic unsaturation found in BE-22179 might be expected to serve as an alkylation site for covalent attachment to DNA, especially following bisintercalation binding. […] These studies would detect both thermally labile and non thermally labile alkylation sites, but only those engaged in interstrand cross-linking. Given the C2 symmetric nature of 2, bisintercalation analogous to echinomycin and triostin A places the two electrophilic sites in positions to react only with the complementary strands of duplex DNA (interstrand DNA cross-linking) and would preclude intrastrand DNA cross-linking.

w794 DNA = assay: DNase I and MTE footprinting; type: binding
Procedure: FIG. 9 is an electrophoresis gel of DNase footprinting of echinomycin bound to w794 DNA. Lane 13, G, C and A Sanger sequencing reactions; lane 4, native DNA; lane 5, control DNA without treatment of DNase I; lanes 6-14; 0, 10, 20, 40, 60, 80, 100, 120, and […] echinomycin with DNase I treatment (1 min).
FIG. 10 is an electrophoresis gel of DNase footprinting of thiocoraline bound to w794 DNA. Lane 1, native DNA; lane 2, control DNA without treatment of DNase I; lanes 3-6, G, C, A, and T Sanger sequencing reactions; lanes 7-26; 0, 10, 25, 50, 75, 100, 150, 200, 250, 300, 350, 400, 450, 500, 600, 700, 800, 900, 1000, and […] thiocoraline with DNase I treatment (1 min).

supercoiled ΦX174 DNA [2] = assay: unwinding and rewinding of negatively supercoiled DNA, agarose gel electrophoresis; type: biochemical
Source text: Confirmation that thiocoraline and BE-22179 bind to DNA with bisintercalation was derived from their ability to induce the unwinding of negatively supercoiled DNA. This was established by their ability to gradually decrease the agarose gel electrophoresis mobility of supercoiled ΦX174 DNA (unwinding) at increasing concentrations followed by a return to normal mobility (rewinding) at even higher concentrations. Under the conditions employed, echinomycin unwound ΦX174 DNA at a 0.044 agent/base pair ratio (FIG. 11 and FIG. 12). Thiocoraline completely unwound ΦX174 DNA at a higher 0.11 agent/base pair ratio, whereas BE-22179 required even higher concentrations producing the unwinding at an agent/base pair ratio of 1.1. […] Thus, the distinctions in 1 and 2 and echinomycin detected here appear to be related to the nature of the cyclic depsipeptide and not the structure of the chromophore.
FIG. 8 is a table of comparative DNA binding properties. ^aCalf thymus DNA, KB=apparent binding constant determined by fluorescence quenching. The value in paren-theses is the agent/base pair ratio at saturated high-affinity binding and may be considered a measure of the selectivity of binding. ^bAgent/base pair ratio required to unwind negatively supercoiled FX174 DNA (form I to form II gel mobility, 0.9% agarose gel). ^cAgent/base pair ratio required to induce complete rewinding or positive super-coiling of FX174 DNA (form II to form I gel mobility, 0.9% agarose gel). ^dBinding constant established by footprinting at a 5′-CCGC site (FIG. 9).
(A) Lane 1, untreated supercoiled FX174 DNA, 95% form 1 and 5% form II; lanes 2-8, thiocoraline-treated FX174 DNA; lanes 9-14, echinomycin-treated FX174 DNA. The [agent]-to-[base pair] ratios were 0.022 (lanes 2 and 9), 0.033 (lanes 3 and 10), 0.044 (lanes 4 and 11), 0.066 (lanes 5 and 12), 0.11 (lanes 6 and 13), 0.22 (lanes 7 and 14), and 0.44 (lane 8). (B) Lane 1, untreated supercoiled FX174 DNA, lanes 2-12, BE-22179-treated FX174 DNA. The [agent]-to-[base pair] ratios were 0.022, (lane 2), 0.033 (lane 3), 0.044 (lane 4), 0.066 (lane 5), 0.11 (lane 6), 0.22 (lane 7), and 0.33 (lane 8), 0.44 (lane 9), 0.66 (lane 10), 1.1 (lane 11), and 2.2 (lane 12). (C) Lane 1, untreated supercoiled FX174 DNA, 95% form 1 and 5% form II; lanes 2-8, thiocoraline analogue (27)-treated FX174 DNA. The [agent]-to-[base pair] ratios were 0.022 (lane 2), 0.033 (lane 3), 0.044 (lane 4), 0.066 (lane 5), 0.11 (lane 6), 0.22 (lane 7), and 0.44 (lane 8).

In the case of `CSC[C@H]1C(=O)SC[C@@H](NC(=O)c2nc3ccccc3cc2O)C(=O)NCC(=O)N(C)[C@H]2CSSC[C@@H](C(=O)N1C)N(C)C(=O)CNC(=O)[C@H](NC(=O)c1nc3ccccc3cc1O)CSC(=O)[C@H](CSC)N(C)C2=O` [Thiocoraline] (I: {Quinaldoyl(3-OH)}-[dC]G[NMeC][NMeC](Me) / II: {Quinaldoyl(3-OH)}-[dC]G[NMeC][NMeC](Me); thioester I:1-II:C, I:C-II:1; disulfide I:3-II:3), the “inhibition of DNA topoisomerase II” value (DNA topoisomerase II) is listed as “does not inhibit”, the “inhibition of DNA topoisomerase I” value (DNA topoisomerase I) is listed as “does not inhibit” and the DNA cleavage (supercoiled ΦX174 DNA [1]) is listed as “No evidence”. The “selectivity of DNA binding by footprinting” value (w794 DNA) was “failed to reveal a distinguishable selectivity”, the “agent/base pair ratio required to unwind supercoiled DNA” value (supercoiled ΦX174 DNA [2]; form I to form II gel mobility) was 0.11 agent/base pair ratio and the “agent/base pair ratio for complete rewinding of supercoiled DNA” value (supercoiled ΦX174 DNA [2]; form II to form I gel mobility) was 0.44 agent/base pair ratio.
